Measurements published in patent US20080171710A1, “The Redox/Fyn/c-Cbl Pathway” (priority 2007, published 2008).
Where two headings read alike, the source gives them in different places.

Tests used:
O-2A/OPCs [1] = test: In vivo BrdU incorporation assay with Olig2 co-labeling, corpus callosum; parameters: species or system mice; conditions: low-level MeHg in maternal drinking water, P14
Protocol: To analyze DNA synthesis in vivo, mice were injected with a single dose of 5-BrdU (50 mg/kg body weight), dissolved in 0.9% NaCl, filtered (0.2 μm), and applied intraperitoneally 2 h prior to perfusion. After removal and sectioning of brains, 40-μm free-floating sections were incubated for 2 h in 50% forraamide/2×SSC (0.3 M NaCl and 0.03 M sodium citrate) at 65° C., rinsed twice for 5 min each in 2×SSC, incubated for 30 min in 2N HCl at 37° C., and rinsed for 10 min in 0.1 M boric acid (pH 8.5) at room temperature. Several rinses in TBS were followed by incubation in TBS/0.1% Triton X-100/3% donkey serum (TBS-plus) for 30 min. Sections were then incubated with monoclonal rat anti-BrdU antibody (1:2,500; Harlan Sera-Lab, Loughborough, United Kingdom) and polyclonal rabbit anti-Olig2 in TBS-plus for 48 h at 4° C. […]
Quantification of BrdU+ cells was accomplished with unbiased counting methods by confocal microscopy. BrdU immunoreaetive nuclei were counted in one focal plane to avoid over-sampling. In corpus callosum, BrdU+ cells were counted in every sixth section (40 μm) from a coronal, series between interaural AP+5.2 mm and AP+3.0 mm in the entire extension of the rostral and medial part of the corpus callosum. Quantitative data are presented as mean percentage normalized to control animals. […]

c-Cbl = format: cell-based, rat
Method in brief: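 Pre-cleared cell lysates (250 μg total protein) immunoprecipitated with anti-c-Cbl or anti-PDGFRα antibody (2 h, 4° C), then protein A/G agarose overnight at 4° C. Precipitates run on 8% SDS-PAGE and Western blotted with anti-p-Tyr (c-Cbl phosphorylation) or anti-ubiquitin (PDGFR ubiquitylation).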

O-2A/OPCs [2] = test: Cell death of O-2A/OPCs on exposure; format: cell-based, rat
Protocol: To generate sufficient numbers of cells for biochemical analysis, cells, were expanded through one to two passages in PDGF+FGF-2 before replating in the presence of PDGF alone. When cells achieved approximately 50% confluence, MeHg, Pb, or paraquat was added to their medium at concentrations indicated. Doses for the toxicants were chosen on the basis of dose-response curves to identify sub-lethal exposure levels, as a reflection of blood and brain toxicant levels of these compounds and, where applicable, on the basis of previous reports. All toxicant concentrations examined were confirmed to cause death of less than 5% of cells over the time course of the experiment.

[3] = 14 mo of age, cited from earlier work
[4] = Brain mercury levels in offspring after maternal drinking water exposure; format: in vivo, mice
Protocol: Six-week-old female SJL mice were treated with MeHg in their drinking water at a concentration of 100 or 250 ppb for 30-60 d prior to mating, and then throughout pregnancy and gestation. This is a level of treatment that is 75%-90% below levels generally considered to be low to moderate and is below levels that have been associated with gross defects in adult or developing animals (e.g., [69-73]).
In the present study, exposure of female mice to MeHg in their drinking water at a concentration of 250 ppb prior to conception, and maintenance of this exposure during suckling, was associated with brain mercury levels in the offspring (examined at P.14) of 50 ng/g, a fall that was precisely in agreement with predictions based on prior studies on the fall of mercury levels occurring during this period in suckling mice. […] The exposure levels of 100 and 250 ppb are 75%-90% below what has otherwise been considered to be low-dose exposure in mice.

PDGFRα mRNA = test: PDGFRα mRNA, real-time RT-PCR; format: cell-based, rat; conditions: MeHg exposure
Protocol: Total RNA was isolated using TRIZOL reagent (Inviirogen, Carlsbad, Calif., United States) according to the manufacturer's protocol. A total of 1 μg of RNA was subjected to reverse transcription using Superscript II (In vitrogen). The reactions were incubated at 42° C. for 50 min. The FAM-iabeled probe mixes for rat PDGFRα and Fyn, and the VIC-labeled GAPDH probe mix were purchased from Applied Biosystems (Foster City Calif., United States). For multiplex real-time PCR, reactions each containing 5 μl of 10-fold diluted reverse transcription product, 1 μl of interest gene probe mix. 1 μl of GAPDH probe mix, and 10 μl of TaqMan Universal PCR Master Mix were performed on an iCycler iQ multicolor real-time PCR system (Bio-Rad, Hercules, Calif., United States) and cycling condition was 50° C. for 2 min and 95° C. for 10 min, followed by 40 cycles of 95° C. for 15 sec and 60° C. for 1 min. Each sample was run in triplicate. Data were analyzed, by iCycler iQ software (Bio-Rad).

O-2A/OPCs [5] = test: Analysis of Pb uptake (Leadmium Green AM); format: cell-based, rat; conditions: 1 μM Pb, 1 mM NAC
Protocol: Pre-treatment with NAC was assayed to determine whether levels of intracellular Pb was altered using analysis with the Leadmium Green AM dye (Molecular Probes), according to the manufacturer's instructions. […] (unpaired t-test), and the values for both Pb-treated samples were several-fold higher than control values.

Fyn = format: cell-based, rat
cancer cells = test: Cancer cell viability (MTT assays), FIG. 22; format: cell-based; conditions: TMX 1-50 μM, 48 hours

Structure (SMILES)	reduction in the number of total BrdU+ cells (O-2A/OPCs [1])	c-Cbl phosphorylation after toxicant exposure (c-Cbl; 30 nM MeHg, 1 μM Pb, 5 μM paraquat)	cell death at the concentrations used (O-2A/OPCs [2]; MeHg at lower concentrations (not above 50 nM), 1 μM Pb, 5 μM paraquat)	exposure level associated with significant lethality (O-2A/OPCs [2]; O-2A/OPCs)	brain levels of MeHg ([3]; 1 ppm in drinking water from conception)	brain levels of MeHg ([3]; 3 ppm in drinking water)	brain mercury in offspring ([4]; 100 ppb MeHg in maternal drinking water)	brain mercury levels in the offspring ([4]; 250 ppb MeHg in maternal drinking water, examined at P14)	levels of PDGFRα mRNA (PDGFRα mRNA)	Pb levels in cells, Pb versus Pb and NAC (O-2A/OPCs [5])	effect on EtOH-induced Fyn phosphorylation (Fyn; co-exposure to NAC)	effect on Aβ-induced increase in phosphorylated Fyn (Fyn; co-exposure with Aβ)	effect on levels of c-Cbl phosphorylation without toxicant (c-Cbl; 1 mM NAC in the absence of toxicants)	effect on TMX-induced activation of c-Cbl (c-Cbl; NAC 1 mM, PP1 100 nM or ICI 182,780 200 nM with TMX)	effect on MeHg-induced c-Cbl phosphorylation (c-Cbl; added 1 h before MeHg)	effect on Pb- and paraquat-induced c-Cbl phosphorylation (c-Cbl; added 1 h before Pb or paraquat)	effect on Aβ-induced increase in phosphorylated c-Cbl (c-Cbl; co-exposure with Aβ)	effect on TMX effects on cancer cells (cancer cells)
[CH3][Hg][Cl] [MeHg, methylmercury]	20%	stimulated	little or no cell death	above 50 nM	1.20 mg/kg	3.66 mg/kg	below the levels of detection	50 ng/g	did not have any significant effects	–	–	–	–	–	–	–	–	–
CC(=O)N[C@@H](CS)C(=O)O [NAC, N-acetyl-L-cysteine]	–	–	–	–	–	–	–	–	–	no significant difference	blocked	reversed	did not have any marked effect	blocked	blocked	blocked	blocked	not blocked
